Holding throughout (type): biochemical
Test [1] has as its system α-isomaltosyl-transferring enzyme from Arthrobacter globiformis A19. Put plainly: Action on saccharides (substrates, TLC). Details: key: −: there was found no substrate change before and after the enzymatic reaction; +: there were found both the reduction of substrate and the formation of cyclotetrasaccharide after the enzymatic reaction. The following applies: partially purified enzyme, 2 units/g substrate, 2% (w/v) substrate, 30° C., pH 6.0, 24 hours. From the text: (§1) To examine the saccharides in the supernatant, they were separated from the supernatant by silica gel thin-layer chromatography (abbreviated as “TLC” hereinafter) using, as a developer, a mixture solution of n-butanol, pyridine, and water (=6:4:1), and, as a thin-layer plate, “[…] 60”, an aluminum plate (20×20 cm) for TLC commercialized by […]. The coloration of both the separated total sugars by the sulfuric acid-methanol method and the reducing saccharides by the diphenylamine-aniline method detected a non-reducing saccharide at a position with an Rf value of about 0.31, which was positive on the former detection method but negative on the latter detection method.
(§2) It was tested whether saccharides can be used as substrates for the α-isomaltosyl-transferring enzyme. For the purpose, a solution of maltose, maltotriose, maltotetraose, maltopentaose, maltohexaose, maltoheptaose, isomaltose, isomaltotriose, panose, isomaltosylmaltose, isopanose, α,α-trehalose, kojibiose, nigerose, α,β-trehalose, cellobiose, gentibiose, maltitol, maltotriitol, lactose, sucrose, α-cyclodextrin, β-cyclodextrin, γ-cyclodextrin, soluble starch, pullulan, or dextran was prepared. To each of the above solutions was added two units/g substrate of a purified specimen of either α-isomaltosyl-transferring enzyme from Bacillus globisporus C9 obtained by the method in Experiment 4, Bacillus globisporus C11 obtained by the method in Experiment 7, Bacillus globisporus N75 obtained by the method in Experiment 11, or Arthrobacter ramosus S1 obtained by the method in Experiment 15, or a partially purified α-isomaltosyl-transferring enzyme from Arthrobacter globiformis A19 obtained by the method in Experiment 15. The resulting each solution was adjusted to give a substrate concentration of 2% (w/v) and incubated at 30° C. and pH 6.0 for 24 hours. The enzyme solutions before and after the enzymatic reactions were respectively analyzed on TLC as disclosed in Experiment 1 to confirm whether the enzymes acted on these substrates.

The subject of test [2] is α-isomaltosyl-transferring enzyme from Arthrobacter ramosus S1. Description: Action on saccharides (substrates, TLC). The following applies: 2 units/g substrate, 2% (w/v) substrate, 30° C., pH 6.0, 24 hours. More on the design: key: −: there was found no substrate change before and after the enzymatic reaction; +: there were found both the reduction of substrate and the formation of cyclotetrasaccharide after the enzymatic reaction.
Source text: as §1, §2

In test [3] the test system is α-isomaltosyl-transferring enzyme from Bacillus globisporus C11. Put plainly: Action on saccharides (substrates, TLC). The following applies: 2 units/g substrate, 2% (w/v) substrate, 30° C., pH 6.0, 24 hours. Details: key: −: there was found no substrate change before and after the enzymatic reaction; +: there were found both the reduction of substrate and the formation of cyclotetrasaccharide after the enzymatic reaction.
Source text: as §1, §2

Test [4] relates to α-isomaltosyl-transferring enzyme from Bacillus globisporus N75. Description: Action on saccharides (substrates, TLC). Details: key: −: there was found no substrate change before and after the enzymatic reaction; +: there were found both the reduction of substrate and the formation of cyclotetrasaccharide after the enzymatic reaction. The following applies: 2 units/g substrate, 2% (w/v) substrate, 30° C., pH 6.0, 24 hours.
Source text: as §1, §2

Test [5] concerns α-isomaltosyl-transferring enzyme from Bacillus globisporus C9. Put plainly: Action on saccharides (substrates, TLC). More on the design: key: −: there was found no substrate change before and after the enzymatic reaction; +: there were found both the reduction of substrate and the formation of cyclotetrasaccharide after the enzymatic reaction. The following applies: 2 units/g substrate, 2% (w/v) substrate, 30° C., pH 6.0, 24 hours.
Source text: as §1, §2

The test system of test [6] is α-isomaltosyl-transferring enzyme from Arthrobacter globiformis A19. Put plainly: Specificity to transferring acceptor. The following applies: partially purified enzyme, panose as saccharide donor, 10 units/g substrate, 3.2% (w/v), 30° C., pH 6.0, 24 hours. An outline of the steps:
(§3)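 Candidate acceptor saccharides mixed with panose donor at equal concentration, 10 units/g substrate enzyme, total saccharide 3.2% (w/v), reacted 24 h at 30 °C, pH 6.0. Transfer product formation scored positive/negative by GLC (mono-/disaccharides) or HPLC (tri- and higher).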

The subject of test [7] is α-isomaltosyl-transferring enzyme from Arthrobacter ramosus S1. Description: Specificity to transferring acceptor. The following applies: panose as saccharide donor, 10 units/g substrate, 3.2% (w/v), 30° C., pH 6.0, 24 hours. An outline of the steps: as §3
Test [8] deals with α-isomaltosyl-transferring enzyme from Bacillus globisporus C11. Description: Specificity to transferring acceptor. The following applies: panose as saccharide donor, 10 units/g substrate, 3.2% (w/v), 30° C., pH 6.0, 24 hours. An outline of the steps:
as §3

Test [9] concerns α-isomaltosyl-transferring enzyme from Bacillus globisporus N75. Put plainly: Specificity to transferring acceptor. The following applies: panose as saccharide donor, 10 units/g substrate, 3.2% (w/v), 30° C., pH 6.0, 24 hours. An outline of the steps: as §3
Test [10] has as its system α-isomaltosyl-transferring enzyme from Bacillus globisporus C9. Description: Specificity to transferring acceptor. The following applies: panose as saccharide donor, 10 units/g substrate, 3.2% (w/v), 30° C., pH 6.0, 24 hours. An outline of the steps:
as §3

In the case of `OC[C@H]1O[C@H](OC[C@H]2OC(O)[C@H](O)[C@@H](O)[C@@H]2O)[C@H](O)[C@@H](O)[C@@H]1O` (stereo partly shown) [Isomaltose, isomaltose], the “Enzymatic action for forming cyclotetrasaccharide, Enzyme of Strain A19” value (shortened to “Enzymatic action … of Strain A19”) in [1] is reported as “−”. The “Enzymatic action for forming cyclotetrasaccharide, Enzyme of Strain S1” value (“Enzymatic action … of Strain S1” below) in test [2] is listed as “−”. The “Enzymatic action for forming cyclotetrasaccharide, Enzyme of Strain C11” value (“Enzymatic action … of Strain C11” for short) in test [3] is “−”. Moreover, in test [4], the “Enzymatic action for forming cyclotetrasaccharide, Enzyme of Strain N75” value (shortened to “Enzymatic action … of Strain N75”) is reported as “−”. Moreover, the “Enzymatic action for forming cyclotetrasaccharide, Enzyme of Strain C9” value (“Enzymatic action … of Strain C9” below) in test [5] is “−”. Moreover, the “Product of transferring reaction, Enzyme of Stain A19” value in test [6] is given as “++ (a saccharide-transferred product was formed in an amount of over 10% to the total sugars)”. Also, in test [7], the “Product of transferring reaction, Enzyme of Strain S1” value was “++ (a saccharide-transferred product was formed in an amount of over 10% to the total sugars)”. Further, the “Product of transferring reaction, Enzyme of Strain C11” value in test [8] is reported as “++ (a saccharide-transferred product was formed in an amount of over 10% to the total sugars)”. Moreover, the “Product of transferring reaction, Enzyme of Strain N75” value in test [9] is “++ (a saccharide-transferred product was formed in an amount of over 10% to the total sugars)”. Further, in [10], the “Product of transferring reaction, Enzyme of Strain C9” value is “++ (a saccharide-transferred product was formed in an amount of over 10% to the total sugars)”.

Take `OC[C@H]1O[C@H](O[C@H]2[C@H](O)[C@@H](O)[C@@H](O[C@H]3[C@H](O)[C@@H](O)[C@@H](O[C@H]4[C@H](O)[C@@H](O)C(O)O[C@@H]4CO)O[C@@H]3CO)O[C@@H]2CO)[C@H](O)[C@@H](O)[C@@H]1O` (stereo partly shown) [Maltotetraose, maltotetraose]: the “Enzymatic action … of Strain A19” value in test [1] is “−”. Further, in test [2], the “Enzymatic action … of Strain S1” value is reported as “−”. Further, the “Enzymatic action … of Strain C11” value in test [3] was “−”. Also, the “Enzymatic action … of Strain N75” value in [4] is “−”. Moreover, the “Enzymatic action … of Strain C9” value in [5] is “−”. The “Product of transferring reaction, Enzyme of Stain A19” value in test [6] was “+ (a saccharide-transferred product was formed in an amount of over one percent but below 10% to the total sugars)”. The “Product of transferring reaction, Enzyme of Strain S1” value in [7] was “+ (a saccharide-transferred product was formed in an amount of over one percent but below 10% to the total sugars)”. Further, the “Product of transferring reaction, Enzyme of Strain C11” value in [8] was “+ (a saccharide-transferred product was formed in an amount of over one percent but below 10% to the total sugars)”. In addition, the “Product of transferring reaction, Enzyme of Strain N75” value in [9] is on record as “+ (a saccharide-transferred product was formed in an amount of over one percent but below 10% to the total sugars)”. For the same molecule, the “Product of transferring reaction, Enzyme of Strain C9” value in test [10] was “+ (a saccharide-transferred product was formed in an amount of over one percent but below 10% to the total sugars)”.

As to `OC[C@H]1O[C@H](OC[C@H]2O[C@H](O[C@H]3[C@H](O)[C@@H](O)[C@@H](O[C@H]4[C@H](O)[C@@H](O)C(O)O[C@@H]4CO)O[C@@H]3CO)[C@H](O)[C@@H](O)[C@@H]2O)[C@H](O)[C@@H](O)[C@@H]1O` (stereo partly shown) [Isomaltosylmaltose, isomaltosylmaltose], the “Enzymatic action … of Strain A19” value in test [1] is “+”. For the same molecule, the “Enzymatic action … of Strain S1” value in test [2] is recorded as “+”. In addition, in test [3], the “Enzymatic action … of Strain C11” value is listed as “+”. Moreover, the “Enzymatic action … of Strain N75” value in test [4] is listed as “+”. In addition, the “Enzymatic action … of Strain C9” value in test [5] is given as “+”.

Source of the values: patent US7192746B2, “α-Isomaltosyltransferase, process for producing the same and use thereof” (Kabushiki Kaisha Hayashibara Seibutsu Kagaku Kenkyujo, priority 2000, dated 2007).
